Measured values taken from paper PMC6325200, “Effects of Microplate Type and Broth Additives on Microdilution MIC Susceptibility Assays” (Antimicrobial Agents and Chemotherapy, 2018).
≈ marks a conversion by molar mass, not a printed value. Read-outs that look alike come from different tables or passages of the source.

Experiments:
[1] = tested on: MRSA ATCC 43300
Protocol: (§1) A positive control of a row of just the bacteria and a negative control of only the medium were included for every plate tested.
(§2) The compounds along with standard antibiotics were serially diluted 2-fold across the 96-well plates. […] A sample of each culture was then diluted 40-fold in fresh MH broth (in presence and absence of Tween) and incubated at 37°C for 2 to 3 h.
For experiments in the presence of surfactant, 2% beractant (25 mg/ml) was added to the mid-log-phase cultures and mixed gently and added to all the 96-well plates. For experiments in the presence of serum, a mixture of 50% of human serum along with 50% MHB was prepared and used throughout the experiment.

[2] = tested on: E. faecalis ATCC 29212; assay: microbe, parasite or virus in culture; conditions: n = 2
Protocol: as §1, §2

[3] = tested on: MSSA S. aureus ATCC 25923; assay: microbe, parasite or virus in culture; conditions: n = 2
Protocol: as §1, §2

[4] = tested on: S. aureus GISA NRS 2; ATCC 700698; assay: microbe, parasite or virus in culture; conditions: n = 2
Protocol: as §1, §2

[5] = tested on: S. pneumoniae ATCC 33440; assay: microbe, parasite or virus in culture; conditions: n = 2
Protocol: as §1, §2

[6] = tested on: S. pneumoniae ATCC 700677 (MDR); assay: microbe, parasite or virus in culture; conditions: n = 2
Protocol: as §1, §2

[7] = tested on: S. pyogenes ATCC 12344; conditions: n = 2
Protocol: as §1, §2

[8] = tested on: MRSA; conditions: literature value; cited from earlier work
From the text: TABLE 1 Literature MIC values for tested antibiotics | column: MIC (µg/ml) (reference[s]) / MRSA

[9] = cited from earlier work
From the text: Other assay additives can affect MIC values. […] Plasma protein binding has been implicated as a major factor limiting the active free concentration of many clinically important antibiotics ([37][–][42]).

[10] = cited from earlier work; remark: listed apart in the source
From the text: Other assay additives can affect MIC values. […] This in turn translates into reduced ...

[11] = cited from earlier work; for concentration found, % of that expected: PS microtiter plates, [14C]oritavancin
Protocol: The majority of antibiotic stock solutions for testing are prepared in water, phosphate buffer, or pH-adjusted aqueous solution (106 out of 139 reported in CLSI M100 [see Table 6A, “Solvents and diluents for preparation of stock solutions of antimicrobial agents”]) ([3]). […] Furthermore, the CLSI reference MIC quality control range tabulated for dalbavancin an ...

With `CCCCCCCCCCNCCN[C@@]1(C)C[C@H](O[C@H]2[C@H](Oc3c4cc5cc3Oc3ccc(cc3Cl)[C@@H](O)[C@@H](NC(=O)[C@@H](CC(C)C)NC)C(=O)N[C@@H](CC(N)=O)C(=O)N[C@H]5C(=O)N[C@H]3C(=O)N[C@H](C(=O)N[C@H](C(=O)O)c5cc(O)c(CNCP(=O)(O)O)c(O)c5-c5cc3ccc5O)[C@H](O)c3ccc(c(Cl)c3)O4)O[C@H](CO)[C@@H](O)[C@@H]2O)O[C@@H](C)[C@H]1O` [Telavancin, telavancin] the MIC ([1]; Corning NBS, MH + 2% LHB, 2% LS, n = 2) was 0.125 mg/L, the MIC ([1]; Corning NBS, MH + 2% LHB, 50% HS, n = 2) was 0.25 mg/L and the MIC ([1]; Corning NBS, MH + 2% LHB, no additive, n = 2) was 0.06 to 0.125 mg/L. It also gave an MIC ([1]; Corning NBS, MH + T80, 2% LS, n = 2) of 0.06 to 0.125 mg/L, an MIC ([1]; Corning NBS, MH + T80, 50% HS, n = 2) of 0.25 mg/L and an MIC ([1]; Corning NBS, MH, 2% LS, n = 2) of 0.125 mg/L (≈ 0.0712 µM). The MIC ([1]; Corning NBS, MH, 50% HS, n = 2) was 0.25 mg/L (≈ 0.142 µM), the MIC ([1]; Corning PS, MH + 2% LHB, 2% LS, n = 2) was 0.125 mg/L and the MIC ([1]; Corning PS, MH + 2% LHB, 50% HS, n = 2) was 0.125 to 0.25 mg/L. For the same compound, the MIC ([1]; Corning PS, MH + 2% LHB, no additive, n = 2) was 0.06 mg/L, the MIC ([1]; Corning PS, MH + T80, 2% LS, n = 2) was 0.06 to 0.25 mg/L and the MIC ([1]; Corning PS, MH + T80, 50% HS, n = 2) was 0.25 mg/L. The MIC ([1]; Corning PS, MH, 2% LS, n = 2) was 0.03 to 0.125 mg/L, the MIC ([1]; Corning PS, MH, 50% HS, n = 2) was 0.125 to 0.25 mg/L and the MIC ([1]; Corning TC, MH + 2% LHB, 2% LS, n = 2) was 0.25 to 1 mg/L. The MIC ([1]; Corning TC, MH + 2% LHB, 50% HS, n = 2) was 2 to 8 mg/L, the MIC ([1]; Corning TC, MH + 2% LHB, no additive, n = 2) was 0.125 mg/L and the MIC ([1]; Corning TC, MH + T80, 2% LS, n = 2) was 0.125 to 0.25 mg/L. It also gave an MIC ([1]; Corning TC, MH + T80, 50% HS, n = 2) of 0.25 to 1 mg/L, an MIC ([1]; Corning TC, MH, 2% LS, n = 2) of 0.25 to 0.5 mg/L and an MIC ([1]; Corning TC, MH, 50% HS, n = 2) of 0.5 to 1 mg/L. For the same compound, the MIC ([1]; Corning flat NBS plate, MHB +0.002% T80, no further additive, n = 2) was 0.125 mg/L (≈ 0.0712 µM), the MIC ([1]; Corning flat NBS plate, MHB −T80, no additive, n = 2) was 0.03 to 0.06 mg/L and the MIC ([1]; Corning flat PS plate, MHB +0.002% T80, no further additive, n = 2) was 0.03 to 0.06 mg/L. It also gave an MIC ([1]; Corning flat PS plate, MHB −T80, no additive, n = 2) of 0.06 mg/L (≈ 0.0342 µM), an MIC ([1]; Corning flat TC plate, MHB +0.002% T80, no further additive, n = 2) of 0.125 to 0.25 mg/L and an MIC ([1]; Corning flat TC plate, MHB −T80, no additive, n = 2) of 1 mg/L (≈ 0.57 µM). For the same compound, the MIC ([1]; Nunc U TC plate, MHB +0.002% T80, n = 2) was 0.25 to 0.5 mg/L, the MIC ([1]; Nunc U TC plate, MHB −T80, n = 2) was 0.5 mg/L (≈ 0.285 µM) and the MIC ([1]; Nunc flat PS plate, MHB +0.002% T80, n = 2) was 0.06 mg/L (≈ 0.0342 µM). For the same compound, the MIC ([1]; Nunc flat PS plate, MHB −T80, n = 2) was 0.06 mg/L (≈ 0.0342 µM), the MIC ([1]; Nunc flat TC plate, MHB +0.002% T80, n = 2) was 0.125 to 0.25 mg/L and the MIC ([1]; Nunc flat TC plate, MHB −T80, n = 2) was 0.5 to 1 mg/L. The “MIC” value ([1]; TC plates without additive) was 0.5 to 1 mg/L, the MIC ([1]; Trek PS, MH + 2% LHB, 2% LS, n = 2) was 0.06 to 0.25 mg/L and the MIC ([1]; Trek PS, MH + 2% LHB, 50% HS, n = 2) was 0.06 to 0.125 mg/L. It also gave an MIC ([1]; Trek PS, MH + 2% LHB, no additive, n = 2) of 0.015 mg/L, an MIC ([1]; Trek PS, MH + T80, 2% LS, n = 2) of 0.06 mg/L and an MIC ([1]; Trek PS, MH + T80, 50% HS, n = 2) of 0.125 to 0.25 mg/L. It also gave an MIC ([1]; Trek PS, MH, 2% LS, n = 2) of 0.03 to 0.06 mg/L, an MIC ([1]; Trek PS, MH, 50% HS, n = 2) of 0.125 mg/L (≈ 0.0712 µM) and an MIC ([1]; Trek flat PS plate, MHB +0.002% T80, no further additive, n = 2) of 0.03 to 0.06 mg/L. The MIC ([1]; Trek flat PS plate, MHB −T80, no additive, n = 2) was 0.03 to 0.06 mg/L, the “MIC” value ([1]; all 3 untreated PS plates, with and without added T80) was “around 0.06 µg/ml” and the MIC ([2]; Corning NBS, MHB +T80) was 0.06 mg/L (≈ 0.0342 µM). It also gave an MIC ([2]; Corning NBS, MHB -T80) of 0.06 to 0.125 mg/L, an MIC ([2]; Corning PS, MHB +T80) of 0.03 to 0.06 mg/L and an MIC ([2]; Corning PS, MHB -T80) of 0.125 to 0.5 mg/L. For the same compound, the MIC ([2]; Corning TC, MHB +T80) was 0.06 to 0.125 mg/L, the MIC ([2]; Corning TC, MHB -T80) was 0.5 to 4 mg/L and the MIC ([3]; Corning NBS, MHB +T80) was 0.125 to 0.25 mg/L. The MIC ([3]; Corning NBS, MHB -T80) was 0.06 to 0.125 mg/L, the MIC ([3]; Corning PS, MHB +T80) was 0.25 to 0.5 mg/L and the MIC ([3]; Corning PS, MHB -T80) was 0.25 to 2 mg/L. The MIC ([3]; Corning TC, MHB +T80) was 0.25 mg/L (≈ 0.142 µM), the MIC ([3]; Corning TC, MHB -T80) was 0.5 to 2 mg/L and the MIC ([4]; Corning NBS, MHB +T80) was 0.125 mg/L (≈ 0.0712 µM). For the same compound, the MIC ([4]; Corning NBS, MHB -T80) was 0.06 to 0.125 mg/L, the MIC ([4]; Corning PS, MHB +T80) was 0.125 mg/L (≈ 0.0712 µM) and the MIC ([4]; Corning PS, MHB -T80) was 0.125 to 0.5 mg/L. It also gave an MIC ([4]; Corning TC, MHB +T80) of 0.25 mg/L (≈ 0.142 µM), an MIC ([4]; Corning TC, MHB -T80) of 1 to 8 mg/L and an MIC ([5]; Corning NBS, MHB +T80) of 0.125 mg/L (≈ 0.0712 µM). The MIC ([5]; Corning NBS, MHB -T80) was 0.125 mg/L (≈ 0.0712 µM), the MIC ([5]; Corning PS, MHB +T80) was 0.125 mg/L (≈ 0.0712 µM) and the MIC ([5]; Corning PS, MHB -T80) was 0.5 to 4 mg/L. It also gave an MIC ([5]; Corning TC, MHB +T80) of 0.25 mg/L (≈ 0.142 µM), an MIC ([5]; Corning TC, MHB -T80) of 1 to 2 mg/L and an MIC ([6]; Corning NBS, MHB +T80) of 0.06 to 0.125 mg/L. For the same compound, the MIC ([6]; Corning NBS, MHB -T80) was 0.03 to 0.06 mg/L, the MIC ([6]; Corning PS, MHB +T80) was 0.06 to 0.125 mg/L and the MIC ([6]; Corning PS, MHB -T80) was 0.06 mg/L (≈ 0.0342 µM). For the same compound, the MIC ([6]; Corning TC, MHB +T80) was 0.125 mg/L (≈ 0.0712 µM), the MIC ([6]; Corning TC, MHB -T80) was 0.5 to 2 mg/L and the MIC ([7]; Corning NBS, MHB +T80) was 0.003 to 0.015 mg/L. The MIC ([7]; Corning NBS, MHB -T80) was ≤ 0.003 mg/L, the MIC ([7]; Corning PS, MHB -T80) was ≤ 0.003 mg/L and the MIC ([7]; Corning TC, MHB +T80) was 0.007 to 0.015 mg/L. For the same compound, the MIC ([7]; Corning TC, MHB -T80) was ≤ 0.003 mg/L, the “MIC (literature)” value [8] was 0.06 ([66], [67]) µg/ml and the protein binding ([9]; literature values, reference given) was 90 to 93%. The half-life [10] was 8 h.
In the case of oritavancin, the “concentration found, % of that expected” value ([11]; 1 µg/ml) is given as < 10%, the “concentration found, % of that expected” value ([11]; 4 µg/ml) is given as 35% and the “concentration found, % of that expected” value ([11]; 16 µg/ml) is given as “approximately 70%”. For the same compound, the “underestimation of MIC values in the absence of added polysorbate 80” value [11] was 16- to 32 fold, the protein binding [9] was 82 to 90% and the half-life ([10]; in vivo) was 240 to 408 h.
